Data on six molecules can be found in patent US5385909A, “Heterocyclic esters of rapamycin” (American Home Products Corporation, priority 1993, dated 1995).

The IC50 is the midpoint of a concentration-inhibition curve.

Structures are written as SMILES. Like-named read-outs stand apart in the source and are kept apart here.

Assay [1] concerns lymphocyte proliferation (thymus cells of normal BALB/c mice). Briefly: Comitogen-induced thymocyte proliferation procedure (LAF). It counts as cell-based. The settings on record: Mus musculus, read-out: LAF IC50. As to the method:
(§1) Immunosuppressive activity for representative compounds of this invention was evaluated in an in vitro standard pharmacological test procedure to measure lymphocyte proliferation (LAF) and in three in vivo standard pharmacological test procedures. The pinch skin graft test procedure measures the immunosuppressive activity of the compound tested as well as the ability of the compound tested to inhibit or treat transplant rejection. The adjuvant arthritis standard pharmacological test procedure, which measures the ability of the compound tested to inhibit immune mediated inflammation. The adjuvant arthritis test procedure is a standard pharmacological test procedure for rheumatoid arthritis. Representative compounds of this invention were also evaluated in a heart allograft standard pharmacological test procedure which measures immunosuppressive activity of the compound tested as well as the ability of the compound tested to inhibit or treat transplant rejection. The procedures for these standard pharmacological test procedures are provided below.
The comitogen-induced thymocyte proliferation procedure (LAF) was used as an in vitro measure of the immunosuppressive effects of representative compounds. Briefly, cells from the thymus of normal BALB/c mice are cultured for 72 hours with PHA and IL-1 and pulsed with tritiated thymidine during the last six hours. Cells are cultured with and without various concentrations of rapamycin, cyclosporin A, or test compound. Cells are harvested and incorporated radioactivity is determined. Inhibition of lymphoproliferation is assessed as percent change in counts per minute from non-drug treated controls. For each compound evaluated, rapamycin was also evaluated for the purpose of comparison. An IC50 was obtained for each test compound as well as for rapamycin. […] The results obtained are provided as an IC50.

Another assay relates to pinch skin graft. The experiment in a line: Pinch skin graft survival test procedure. The assay is classed as in vivo, male BALB/c donors, male C3 H(H-2K) recipients (mice). The settings on record: 4 mg/kg; intraperitoneally or orally; untreated grafts usually rejected within 6-7 days. As to the method: as §1
Representative compounds of this invention were also evaluated in an in vivo test procedure designed to determine the survival time of pinch skin graft from male BALB/c donors transplanted to male C3 H(H-2K) recipients. The method is adapted from Billingham R. E. and Medawar P. B., J. Exp. Biol. 28:385-402, (1951). Briefly, a pinch skin graft from the donor was grafted on the dorsum of the recipient as a allograft, and an isograft was used as control in the same region. The recipients were treated with either varying concentrations of test compounds intraperitoneally or orally. Rapamycin was used as a test control. Untreated recipients serve as rejection control. The graft was monitored daily and observations were recorded until the graft became dry and formed a blackened scab. This was considered as the rejection day. The mean graft survival time (number of days±S.D.) of the drug treatment group was compared with the control group. […] Results are expressed as the mean survival time in days. Untreated (control) pinch skin grafts are usually rejected within 6-7 days. Compounds were tested using a dose of 4 mg/kg.

Assay [2] deals with adjuvant arthritis, uninjected (left) hind paw inflammation. Briefly: Adjuvant arthritis standard pharmacological test procedure. The assay is classed as in vivo, male Wistar Lewis rats. Particulars: 2 mg/kg, oral, uninjected paw at day 16; for Percent change in adjuvant arthritis versus control: 7 doses day 0-14, more negative = more potent. The procedure: as §1
The adjuvant arthritis standard pharmacological test procedure measures the ability of test compounds to prevent immune mediated inflammation and inhibit or treat rheumatoid arthritis. The following briefly describes the test procedure used. A group of rats (male inbread Wistar Lewis rats) are pre-treated with the compound to be tested (1 h prior to antigen) and then injected with Freud's Complete Adjuvant (FCA) in the right hind paw to induce arthritis. The rats are then orally dosed on a Monday, Wednesday, Friday schedule from day 0-14 for a total of 7 doses. Both hind paws are measured on days 16, 23, and 30. The difference in paw volume (mL) from day 16 to day 0 is determined and a percent change from control is obtained. […] The right hind paw inflammation, on the other hand, is caused by nonspecific inflammation. Compounds were tested at a dose of 2 mg/kg.

For a further assay, the system named is heart allograft. Briefly: Heterotropic heart allograft standard pharmacological test procedure. The settings on record: 300 μg/day, i.p.; untreated rejected in about 9-10 days. It counts as in vivo, BN rat neonate donors, male Lewis rat recipients. As to the method:
as §1
The ability of the compounds of this invention to induce immunosuppression and inhibit or treat transplantation rejection was evaluated in a heterotropic heart allograft standard pharmacological test procedure that emulates transplantation rejection that occurs in humans. The following briefly describes the procedure that was used. […]

In the next assay the test system is immunosuppression. Particulars: cited from earlier work.
The next assay relates to Candida albicans. Particulars: in vitro and in vivo; cited from earlier work.
Another assay concerns tumor. Particulars: alone or in combination with picibanil; cited from earlier work.
The test system of assay [3] is experimental allergic encephalomyelitis, a model for multiple sclerosis. The settings on record: in vivo; cited from earlier work.
Assay [4] relates to adjuvant arthritis, a model for rheumatoid arthritis. The settings on record: in vivo; cited from earlier work.
The test system of assay [5] is formation of IgE-like antibodies. The settings on record: in vivo; cited from earlier work.
[6] abbreviates: 72 h culture with PHA and IL-1, tritiated thymidine incorporation.

In the case of `CO[C@H]1C[C@@H]2CC[C@@H](C)[C@@](O)(O2)C(=O)C(=O)N2CCCC[C@H]2C(=O)O[C@H]([C@H](C)C[C@@H]2CC[C@@H](OC(=O)c3cccnc3C)[C@H](OC)C2)CC(=O)[C@H](C)/C=C(\C)[C@@H](O)[C@@H](OC)C(=O)[C@H](C)C[C@H](C)/C=C/C=C/C=C/1C` [Example 1, Rapamycin 42-ester with 2-methylnicotinic acid], in [1] (setting [6]), the IC50 is 1000 pM. Further, the “Skin graft survival (mean survival time ± S.D.)” value (“Skin graft survival” below) in the assay on pinch skin graft amounted to 11.2 ± 0.8 days. The “Percent change in adjuvant arthritis versus control” value in assay [2] was -88%. The “Heart allograft survival (mean survival time)” value in the assay on heart allograft was 29.9 days.
Regarding `CO[C@H]1C[C@@H]2CC[C@@H](C)[C@@](O)(O2)C(=O)C(=O)N2CCCC[C@H]2C(=O)O[C@H]([C@H](C)C[C@@H]2CC[C@@H](OC(=O)c3cccnc3)[C@H](OC)C2)CC(=O)[C@H](C)/C=C(\C)[C@@H](O)[C@@H](OC)C(=O)[C@H](C)C[C@H](C)/C=C/C=C/C=C/1C` [Example 2, Rapamycin 42-ester with nicotinic acid], the IC50 in [1] (setting [6]) was found to be 170 pM. The “Skin graft survival” value in the assay on pinch skin graft is 9.60 ± 0.89 days.
Consider `CO[C@H]1C[C@@H]2CC[C@@H](C)[C@@](O)(O2)C(=O)C(=O)N2CCCC[C@H]2C(=O)O[C@H]([C@H](C)C[C@@H]2CC[C@@H](OC(=O)c3ccc(C)nc3)[C@H](OC)C2)CC(=O)[C@H](C)/C=C(\C)[C@@H](O)[C@@H](OC)C(=O)[C@H](C)C[C@H](C)/C=C/C=C/C=C/1C` [Example 3, Rapamycin 42-ester with 6-methylpyridine-3-carboxylic acid], for which the IC50 in [1] (setting [6]) worked out at 600 pM. In addition, the “Skin graft survival” value in the assay on pinch skin graft came to 12.5 ± 0.58 days. Also, the “Percent change in adjuvant arthritis versus control” value in assay [2] is -87%.
On the same counts, the results for `CO[C@H]1C[C@@H]2CC[C@@H](C)[C@@](O)(O2)C(=O)C(=O)N2CCCC[C@H]2C(=O)O[C@H]([C@H](C)C[C@@H]2CC[C@@H](OC(=O)c3cnc(C)cn3)[C@H](OC)C2)CC(=O)[C@H](C)/C=C(\C)[C@@H](O)[C@@H](OC)C(=O)[C@H](C)C[C@H](C)/C=C/C=C/C=C/1C` [Example 4, Rapamycin 42-ester with 5-methylpyrazine-2-carboxylic acid] are 280 pM, 11.33 ± 0.82 days and -90%.
As for `C=CC[C@@H]1/C=C(\C)C[C@H](C)C[C@H](OC)[C@H]2O[C@@](O)(C(=O)C(=O)N3CCCC[C@H]3C(=O)O[C@H](/C(C)=C/[C@@H]3CC[C@@H](O)[C@H](OC)C3)[C@H](C)[C@@H](O)CC1=O)[C@H](C)C[C@@H]2OC` [FK-506], the “effective as immunosuppressive agents” value with immunosuppression is recorded as “effective”.
As to `CO[C@H]1C[C@@H]2CC[C@@H](C)[C@@](O)(O2)C(=O)C(=O)N2CCCC[C@H]2C(=O)O[C@H]([C@H](C)C[C@@H]2CC[C@@H](O)[C@H](OC)C2)CC(=O)[C@H](C)/C=C(\C)[C@@H](O)[C@@H](OC)C(=O)[C@H](C)C[C@H](C)/C=C/C=C/C=C/1C` [rapamycin], in [1] (72 h), the IC50 was 500 to 1900 pM. For the same molecule, the “less immune induced inflammation than control rats” value in assay [2] is 70-90%. Besides, in the assay on Candida albicans, the antifungal activity result was “antifungal activity, particularly against Candida albicans, both in vitro and in vivo”. For the same molecule, the antitumor activity entry in the assay on tumor was “antitumor activity”. Besides, the “effectiveness in experimental allergic encephalomyelitis model” value in assay [3] was “effective”. For the same molecule, the “effectiveness in adjuvant arthritis model” value in [4] is reported as “effective”. Moreover, the “inhibition of formation of IgE-like antibodies” value in assay [5] is listed as “effectively inhibited”.
